Reference: patent publication US20120094998A1, “Oligomer-Protein Tyrosine Kinase Inhibitor Conjugates” (Nektar Therapeutics, priority 2009, published 2012)
Where two headings read alike, the source gives them in different places.

Columns and labels:
Assay type in all cases: biochemical
TSSK1 = biological target: T1, TSSK1 (Homo sapiens, UniProt Q9BXA7); assay: Activity against various protein tyrosine kinases: TSSK1; conditions: for inhibition at 0.01 µM: 10 nM
T1 sequence (Q9BXA7 1-367): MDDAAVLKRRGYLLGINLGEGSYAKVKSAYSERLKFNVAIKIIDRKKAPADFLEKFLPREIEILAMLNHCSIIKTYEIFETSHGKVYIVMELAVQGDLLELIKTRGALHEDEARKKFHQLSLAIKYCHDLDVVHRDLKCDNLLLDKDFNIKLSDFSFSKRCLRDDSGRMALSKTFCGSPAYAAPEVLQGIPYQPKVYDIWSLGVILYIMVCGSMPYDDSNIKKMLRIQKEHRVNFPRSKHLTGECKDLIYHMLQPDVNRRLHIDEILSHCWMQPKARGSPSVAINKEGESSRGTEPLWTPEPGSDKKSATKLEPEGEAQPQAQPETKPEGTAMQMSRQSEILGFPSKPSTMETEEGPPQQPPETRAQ
Protocol: (§1) Using techniques know those of ordinary skill in the art, compounds were tested for activity against various protein tyrosine kinases.

FGFR2 (N549H) = FGFR2 (N549H) (Homo sapiens, UniProt P21802, N549H); assay: Activity against various protein tyrosine kinases: FGFR2 (N549H); conditions: for inhibition at 0.01 µM: 10 nM
Protocol: as §1

TSSK2 = biological target: T2, TSSK2 (Homo sapiens, UniProt Q96PF2); assay: Activity against various protein tyrosine kinases: TSSK2; conditions: for inhibition at 0.01 µM: 10 nM
T2 sequence (Q96PF2 1-358): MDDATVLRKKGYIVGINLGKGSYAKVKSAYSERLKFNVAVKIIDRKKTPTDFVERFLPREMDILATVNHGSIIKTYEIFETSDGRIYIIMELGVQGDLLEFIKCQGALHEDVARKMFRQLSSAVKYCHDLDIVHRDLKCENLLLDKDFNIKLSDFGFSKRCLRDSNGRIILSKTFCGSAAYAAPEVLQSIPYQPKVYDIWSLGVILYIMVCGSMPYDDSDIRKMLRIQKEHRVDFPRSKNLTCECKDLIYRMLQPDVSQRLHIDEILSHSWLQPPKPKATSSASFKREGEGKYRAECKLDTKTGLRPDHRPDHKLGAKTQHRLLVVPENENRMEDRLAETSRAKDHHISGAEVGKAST
Protocol: as §1

GSK3b = GSK3b (Homo sapiens, UniProt P49841); assay: Activity against various protein tyrosine kinases: GSK3b; conditions: for inhibition at 0.01 µM: 10 nM
Chain of GSK3b (P49841 whole entry, species assumed): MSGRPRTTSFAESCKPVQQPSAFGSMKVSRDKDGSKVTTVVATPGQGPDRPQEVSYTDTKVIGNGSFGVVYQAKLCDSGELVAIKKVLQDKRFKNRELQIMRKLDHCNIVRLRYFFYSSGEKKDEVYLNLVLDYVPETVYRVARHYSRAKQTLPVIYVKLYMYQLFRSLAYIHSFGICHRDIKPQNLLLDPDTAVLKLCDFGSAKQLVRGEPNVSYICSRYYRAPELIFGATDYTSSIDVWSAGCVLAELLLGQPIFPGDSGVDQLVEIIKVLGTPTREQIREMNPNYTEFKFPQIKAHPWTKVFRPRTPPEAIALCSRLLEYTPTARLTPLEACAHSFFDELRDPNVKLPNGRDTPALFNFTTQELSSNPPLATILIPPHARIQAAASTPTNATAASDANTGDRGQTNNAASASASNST
Protocol: as §1

Fer = Fer (Homo sapiens, UniProt P16591); assay: Activity against various protein tyrosine kinases: Fer; conditions: for inhibition at 0.01 µM: 10 nM
Chain of Fer (P16591 whole entry, species assumed): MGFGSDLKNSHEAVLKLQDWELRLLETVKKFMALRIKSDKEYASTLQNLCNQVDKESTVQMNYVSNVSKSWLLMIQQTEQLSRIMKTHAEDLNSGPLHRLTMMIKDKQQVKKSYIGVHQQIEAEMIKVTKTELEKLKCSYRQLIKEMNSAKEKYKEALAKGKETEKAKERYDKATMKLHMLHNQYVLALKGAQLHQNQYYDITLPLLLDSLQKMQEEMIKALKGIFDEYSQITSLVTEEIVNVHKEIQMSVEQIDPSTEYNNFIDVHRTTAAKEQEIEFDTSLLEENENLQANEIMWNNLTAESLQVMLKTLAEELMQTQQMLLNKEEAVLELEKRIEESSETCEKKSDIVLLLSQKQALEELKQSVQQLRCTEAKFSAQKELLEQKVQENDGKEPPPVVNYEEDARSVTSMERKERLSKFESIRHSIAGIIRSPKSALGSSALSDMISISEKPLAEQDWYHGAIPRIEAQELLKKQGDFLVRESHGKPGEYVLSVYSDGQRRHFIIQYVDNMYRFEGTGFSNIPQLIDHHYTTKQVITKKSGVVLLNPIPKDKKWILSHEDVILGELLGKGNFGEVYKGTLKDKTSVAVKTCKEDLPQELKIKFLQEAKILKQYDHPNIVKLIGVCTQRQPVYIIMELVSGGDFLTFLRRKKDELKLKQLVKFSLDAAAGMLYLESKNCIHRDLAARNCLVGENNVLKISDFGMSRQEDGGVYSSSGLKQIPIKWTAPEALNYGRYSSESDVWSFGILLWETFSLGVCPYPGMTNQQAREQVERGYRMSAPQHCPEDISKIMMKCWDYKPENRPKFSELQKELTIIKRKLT
Protocol: as §1

MSK1 = MSK1 (Homo sapiens, UniProt O75582); assay: Activity against various protein tyrosine kinases: MSK1; conditions: for inhibition at 0.01 µM: 10 nM
Protocol: as §1

p38a = p38a (Homo sapiens, UniProt Q16539); assay: Activity against various protein tyrosine kinases: p38a; conditions: for inhibition at 1 µM: read-out: % Inhibition at 1 μM; for inhibition at 0.01 µM: 10 nM
Chain of p38a (Q16539 whole entry): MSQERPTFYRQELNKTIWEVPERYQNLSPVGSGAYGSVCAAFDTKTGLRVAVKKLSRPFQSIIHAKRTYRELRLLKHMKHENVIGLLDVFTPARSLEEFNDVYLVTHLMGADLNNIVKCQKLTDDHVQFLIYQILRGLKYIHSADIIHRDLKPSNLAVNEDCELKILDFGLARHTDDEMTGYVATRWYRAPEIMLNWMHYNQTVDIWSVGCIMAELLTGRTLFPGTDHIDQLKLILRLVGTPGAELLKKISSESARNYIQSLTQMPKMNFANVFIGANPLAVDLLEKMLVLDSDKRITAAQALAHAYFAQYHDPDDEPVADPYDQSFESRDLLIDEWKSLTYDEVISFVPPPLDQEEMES
Protocol: as §1

CaMKII (beta) = CaMKII (beta) (Homo sapiens, UniProt Q13554); assay: Activity against various protein tyrosine kinases: CaMKII (beta); conditions: for inhibition at 0.01 µM: 10 nM
Chain of CaMKII (beta) (Q13554 whole entry): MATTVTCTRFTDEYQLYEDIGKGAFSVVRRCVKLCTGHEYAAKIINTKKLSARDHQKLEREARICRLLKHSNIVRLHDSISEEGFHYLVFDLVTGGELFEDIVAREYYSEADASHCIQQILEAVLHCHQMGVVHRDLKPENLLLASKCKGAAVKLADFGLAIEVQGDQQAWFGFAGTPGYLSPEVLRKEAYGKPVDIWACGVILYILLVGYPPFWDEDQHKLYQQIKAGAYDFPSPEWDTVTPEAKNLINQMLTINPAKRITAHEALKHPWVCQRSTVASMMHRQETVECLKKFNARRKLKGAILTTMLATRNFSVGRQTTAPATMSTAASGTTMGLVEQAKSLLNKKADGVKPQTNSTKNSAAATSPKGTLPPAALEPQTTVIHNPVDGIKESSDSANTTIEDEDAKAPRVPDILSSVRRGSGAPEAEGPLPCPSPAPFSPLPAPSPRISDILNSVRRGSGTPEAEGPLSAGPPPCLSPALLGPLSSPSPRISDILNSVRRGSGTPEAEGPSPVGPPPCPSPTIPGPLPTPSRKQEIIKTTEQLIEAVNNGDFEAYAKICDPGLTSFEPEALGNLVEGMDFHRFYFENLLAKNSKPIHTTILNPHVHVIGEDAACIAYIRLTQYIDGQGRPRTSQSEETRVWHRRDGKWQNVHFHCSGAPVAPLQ
Protocol: as §1

AKT3 = AKT3 (Homo sapiens, UniProt Q9Y243); assay: Activity against various protein tyrosine kinases: AKT3; conditions: for inhibition at 0.01 µM: 10 nM
Chain of AKT3 (Q9Y243 whole entry, species assumed): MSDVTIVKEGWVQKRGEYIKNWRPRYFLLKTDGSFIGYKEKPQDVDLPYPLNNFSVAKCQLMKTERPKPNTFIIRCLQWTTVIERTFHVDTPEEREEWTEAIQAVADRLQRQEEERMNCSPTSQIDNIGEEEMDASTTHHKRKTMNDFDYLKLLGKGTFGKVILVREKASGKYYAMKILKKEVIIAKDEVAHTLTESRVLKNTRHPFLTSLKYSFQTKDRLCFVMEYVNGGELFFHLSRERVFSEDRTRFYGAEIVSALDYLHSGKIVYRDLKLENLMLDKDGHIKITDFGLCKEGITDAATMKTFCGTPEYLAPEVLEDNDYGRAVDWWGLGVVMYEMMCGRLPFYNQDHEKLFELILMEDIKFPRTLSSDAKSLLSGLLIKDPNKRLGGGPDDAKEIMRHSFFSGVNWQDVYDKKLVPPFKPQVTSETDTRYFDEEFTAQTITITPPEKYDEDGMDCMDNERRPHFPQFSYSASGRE
Protocol: as §1

CaMKII (gamma) = CaMKII (gamma) (Homo sapiens, UniProt Q13555); assay: Activity against various protein tyrosine kinases: CaMKII (gamma); conditions: for inhibition at 0.01 µM: 10 nM
Chain of CaMKII (gamma) (Q13555 whole entry, species assumed): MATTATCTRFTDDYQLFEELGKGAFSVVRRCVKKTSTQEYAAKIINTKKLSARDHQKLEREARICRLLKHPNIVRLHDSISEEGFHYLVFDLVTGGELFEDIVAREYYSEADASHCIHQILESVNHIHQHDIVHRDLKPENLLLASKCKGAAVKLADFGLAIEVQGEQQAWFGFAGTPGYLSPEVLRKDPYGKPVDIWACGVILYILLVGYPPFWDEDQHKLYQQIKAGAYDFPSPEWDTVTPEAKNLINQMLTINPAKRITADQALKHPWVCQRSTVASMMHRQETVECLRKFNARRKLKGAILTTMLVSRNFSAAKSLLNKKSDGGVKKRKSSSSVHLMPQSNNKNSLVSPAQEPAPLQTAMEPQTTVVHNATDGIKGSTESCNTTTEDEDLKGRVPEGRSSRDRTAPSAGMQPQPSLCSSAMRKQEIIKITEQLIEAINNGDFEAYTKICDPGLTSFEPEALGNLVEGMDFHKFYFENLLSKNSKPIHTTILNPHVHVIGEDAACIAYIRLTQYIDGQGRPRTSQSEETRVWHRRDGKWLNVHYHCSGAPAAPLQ
Protocol: as §1

p38-beta2 = p38-beta2 (Homo sapiens, UniProt Q15759); assay: Activity against various protein tyrosine kinases: p38-beta2; conditions: for inhibition at 0.01 µM: 10 nM
Chain of p38-beta2 (Q15759 whole entry): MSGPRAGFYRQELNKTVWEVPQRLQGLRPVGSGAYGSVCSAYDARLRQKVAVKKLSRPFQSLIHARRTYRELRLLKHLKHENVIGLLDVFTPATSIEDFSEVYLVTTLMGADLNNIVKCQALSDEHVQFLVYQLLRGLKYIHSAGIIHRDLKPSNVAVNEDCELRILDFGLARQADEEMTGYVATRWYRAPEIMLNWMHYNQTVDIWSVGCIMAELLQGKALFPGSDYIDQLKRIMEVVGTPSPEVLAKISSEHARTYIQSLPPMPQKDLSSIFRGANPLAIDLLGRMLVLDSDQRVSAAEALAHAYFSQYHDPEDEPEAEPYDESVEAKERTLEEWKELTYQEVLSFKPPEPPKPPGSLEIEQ
Protocol: as §1

cKIT = cKIT (Homo sapiens, UniProt P10721); assay: Activity against various protein tyrosine kinases: CKIT; set-up: purchased MILLIPORE 14-559; conditions: for inhibition at 0.01 µM: 10 nM
Chain of cKIT (P10721 26-976): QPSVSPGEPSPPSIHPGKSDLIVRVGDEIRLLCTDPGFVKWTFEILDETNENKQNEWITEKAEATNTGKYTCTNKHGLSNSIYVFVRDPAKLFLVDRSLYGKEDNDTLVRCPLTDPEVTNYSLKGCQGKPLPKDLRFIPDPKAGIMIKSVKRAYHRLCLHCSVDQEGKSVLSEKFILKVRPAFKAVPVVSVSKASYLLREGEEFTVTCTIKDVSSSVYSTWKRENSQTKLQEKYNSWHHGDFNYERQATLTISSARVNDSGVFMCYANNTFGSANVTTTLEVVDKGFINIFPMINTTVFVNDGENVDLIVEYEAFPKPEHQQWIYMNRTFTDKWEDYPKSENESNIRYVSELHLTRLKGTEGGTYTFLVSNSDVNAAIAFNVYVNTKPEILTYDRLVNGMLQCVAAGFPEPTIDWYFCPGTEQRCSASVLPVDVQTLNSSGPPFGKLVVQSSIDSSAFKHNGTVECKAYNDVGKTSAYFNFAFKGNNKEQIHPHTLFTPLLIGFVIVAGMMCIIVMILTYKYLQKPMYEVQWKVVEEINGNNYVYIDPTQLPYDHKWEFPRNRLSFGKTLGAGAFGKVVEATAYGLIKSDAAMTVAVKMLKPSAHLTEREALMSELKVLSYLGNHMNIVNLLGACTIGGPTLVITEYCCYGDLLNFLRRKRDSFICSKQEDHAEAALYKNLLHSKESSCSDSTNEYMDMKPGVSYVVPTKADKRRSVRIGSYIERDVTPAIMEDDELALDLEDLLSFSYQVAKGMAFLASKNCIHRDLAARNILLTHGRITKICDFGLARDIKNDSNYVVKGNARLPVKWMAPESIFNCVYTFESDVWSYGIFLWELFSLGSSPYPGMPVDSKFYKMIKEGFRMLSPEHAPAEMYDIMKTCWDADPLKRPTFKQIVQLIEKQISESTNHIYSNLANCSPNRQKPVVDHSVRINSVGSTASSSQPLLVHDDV
Protocol: as §1

MET = MET (Homo sapiens, UniProt P08581); assay: Activity against various protein tyrosine kinases: MET; conditions: for inhibition at 0.01 µM: 10 nM
Protocol: as §1

AKT1 = AKT1 (Homo sapiens, UniProt P31749); assay: Activity against various protein tyrosine kinases: AKT1; conditions: for inhibition at 0.01 µM: 10 nM
Protocol: as §1

AurB = AurB (Homo sapiens, UniProt Q96GD4); assay: Activity against various protein tyrosine kinases: AurB; conditions: for inhibition at 1 µM: read-out: % Inhibition at 1 μM; for inhibition at 0.01 µM: 10 nM
Chain of AurB (Q96GD4 whole entry): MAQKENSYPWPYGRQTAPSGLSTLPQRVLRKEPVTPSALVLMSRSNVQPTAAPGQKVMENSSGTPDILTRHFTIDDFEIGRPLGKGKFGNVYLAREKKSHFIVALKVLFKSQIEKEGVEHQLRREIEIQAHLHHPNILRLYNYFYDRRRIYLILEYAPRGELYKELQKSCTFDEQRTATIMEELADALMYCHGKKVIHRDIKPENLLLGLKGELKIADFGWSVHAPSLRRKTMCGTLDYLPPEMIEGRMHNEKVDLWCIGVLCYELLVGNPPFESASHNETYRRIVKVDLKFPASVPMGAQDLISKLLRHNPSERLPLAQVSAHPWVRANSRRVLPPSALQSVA
Protocol: as §1

CHK1 = biological target: T3, CHK1 (Homo sapiens, UniProt O14757); assay: Activity against various protein tyrosine kinases: CHK1; conditions: for inhibition at 0.01 µM: 10 nM
T3 sequence (O14757 1-476): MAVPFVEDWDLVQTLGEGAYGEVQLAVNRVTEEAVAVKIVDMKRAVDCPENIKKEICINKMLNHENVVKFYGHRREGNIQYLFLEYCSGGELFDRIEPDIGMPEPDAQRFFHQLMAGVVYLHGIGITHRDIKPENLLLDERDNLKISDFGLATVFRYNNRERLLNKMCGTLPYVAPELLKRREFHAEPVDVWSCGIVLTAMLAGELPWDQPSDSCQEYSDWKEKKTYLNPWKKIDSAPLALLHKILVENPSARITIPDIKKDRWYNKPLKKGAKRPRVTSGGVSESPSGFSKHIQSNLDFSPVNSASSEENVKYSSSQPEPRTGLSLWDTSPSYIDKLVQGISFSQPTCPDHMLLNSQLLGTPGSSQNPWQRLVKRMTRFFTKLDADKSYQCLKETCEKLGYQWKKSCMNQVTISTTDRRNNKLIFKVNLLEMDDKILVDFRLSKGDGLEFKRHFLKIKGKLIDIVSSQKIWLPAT
Protocol: as §1

SMILES	inhibition at 0.01 µM (TSSK1)	inhibition at 1 µM (TSSK1)	inhibition at 0.01 µM (FGFR2 (N549H))	inhibition at 1 µM (FGFR2 (N549H))	inhibition at 0.01 µM (TSSK2)	inhibition at 0.01 µM (GSK3b)	inhibition at 0.01 µM (Fer)	inhibition at 1 µM (MSK1)	inhibition at 1 µM (CaMKII (beta))	inhibition at 0.01 µM (AKT3)	inhibition at 1 µM (AKT3)	inhibition at 0.01 µM (CaMKII (gamma))	inhibition at 0.01 µM (p38-beta2)	inhibition at 1 µM (p38-beta2)	inhibition at 0.01 µM (cKIT)	inhibition at 0.01 µM (MET)	inhibition at 0.01 µM (AKT1)	inhibition at 1 µM (AKT1)	inhibition at 0.01 µM (CHK1)	inhibition at 1 µM (TSSK2)	other results
Cc1nc(Nc2ncc(C(=O)Nc3c(C)cccc3Cl)s2)cc(N2CCN(CCO)CC2)n1 [Dasatinib, reference compound]	-5%	-6%	6%	71%	-3%	7%	-3%	3%	3%	-3%	-4%	5%	-2%	34%	30%	-2%	-6%	-2%	3%	–	inhibition at 1 µM (p38a): 75%; inhibition at 1 µM (AurB): 6%
COCCOCCOCCNC(=O)OCCN1CCN(c2cc(Nc3ncc(C(=O)Nc4c(C)cccc4Cl)s3)nc(C)n2)CC1 [mPEG3-NHCOO-Dasatinib]	-1%	0%	7%	75%	-1%	4%	-4%	1%	2%	0%	-1%	2%	3%	48%	34%	3%	7%	0%	-2%	0%	inhibition at 1 µM (GSK3b): 1%; inhibition at 1 µM (Fer): 5%; inhibition at 0.01 µM (MSK1): 2%; inhibition at 0.01 µM (p38a; p38a): 6%; inhibition at 1 µM (p38a; p38a, 1 μM): 81%; inhibition at 0.01 µM (CaMKII (beta)): 1%; inhibition at 1 µM (CaMKII (gamma)): 2%; inhibition at 1 µM (cKIT): 100%; inhibition at 1 µM (MET): 0%; inhibition at 0.01 µM (AurB; AurB): -1%; inhibition at 1 µM (AurB; AurB, 1 μM): 4%; inhibition at 1 µM (CHK1): 0%
COCCOCCOCCOCCOCCOCCOCCNC(=O)OCCN1CCN(c2cc(Nc3ncc(C(=O)Nc4c(C)cccc4Cl)s3)nc(C)n2)CC1 [mPEG7-NHCOO-Dasatinib]	-3%	-5%	5%	63%	3%	3%	-2%	5%	2%	-3%	-2%	6%	0%	35%	34%	1%	-1%	0%	10%	-2%	inhibition at 1 µM (GSK3b): 2%; inhibition at 1 µM (Fer): 5%; inhibition at 0.01 µM (MSK1): 3%; inhibition at 0.01 µM (p38a; p38a): 5%; inhibition at 1 µM (p38a; p38a, 1 μM): 74%; inhibition at 0.01 µM (CaMKII (beta)): 1%; inhibition at 1 µM (CaMKII (gamma)): 3%; inhibition at 1 µM (cKIT): 100%; inhibition at 1 µM (MET): 1%; inhibition at 0.01 µM (AurB; AurB): 0%; inhibition at 1 µM (AurB; AurB, 1 μM): 4%; inhibition at 1 µM (CHK1): 8%
